Measured values published in US20140249143A1, “Compounds And Methods For Enhancing Innate Immune Responses” (GlaxoSmithKline LLC, priority 2011, published 2014).

How the values were obtained:
[1] = test system: HCV genotype 1a subgenomic replicon; test: Anti-Hepatitis C replicon assay, genotype 1a (luciferase); assay type: cell-based; details: Hepatitis C virus; luciferase activity measured 48 hours later; read-out: HCV Genotype 1A Replicon pEC50 (converted)
Summary of the method: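 The 1b line is ET cells carrying the I389luc-ubi-neo/NS3-3′/ET replicon with adaptive mutations E1202G, T1280I and K1846T; the 1a line is an Apath replicon line modified with firefly luciferase. Cells were exposed 48 h to compound (final 0.03 pM–50 μM, 0.5-1% DMSO), read by Steady-Glo luciferase, and IC50 came from 10-point four-parameter logistic fits; cytotoxicity was read by CellTiter-Glo.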

[2] = test system: HCV replication in 1b HCV replicon cells; test: siRNA knockdown of JAK/STAT pathway factors in 1b HCV replicon cells; assay type: cell-based, Hepatitis C virus; details: 2 μM, 30 h, 50 nM siRNA
Protocol: 50 nM of siRNA against each gene (Dharmacon, on-target SMART pool: L-020209-00-0005 (IFNAR1), L-015411-00-0005 (IFNAR2), L-007981-00-0005 (IL28RA), L-007926-00-0005 (IL10RB), L-011-57-00-0005(IFNGR1), L-012713-00-0005 (IFNGR2), L-003145-00-0005 (JAK1), L-003146-00-0005 (JAK2), L-003182-00-0005 (Tyk2), L-003147-00-0 005 (JAK3), L-003543-00-0005 (STAT1), L-012064-00-0005 (STAT2)) was transfected in the 1b HCV replicon cells using lipofectamine RNAiMax™ (Invitrogen) according to the manufacturer's protocol. A scrambled irrelevant smart pool control siRNA was included as a control (IRR). After 3 days post transfection, the cells were treated with DMSO, IFNα (5 U/ml), IFNγ (100 U/ml), and Example 1 (2 μM) in triplicate for 30 h. The cells were harvested with Bright-Glo (Promega) and the HCV replication was measured by luminescence. […] To measure the efficiency of the knockdown, total RNA was harvested from the siRNA-transfected cells at day 3 post transfection and analyzed by real time RT-PCR.

[3] = target: T1, human JAK1 (Homo sapiens, UniProt P23458); test: JAK1 reconstitution in U4A and 2fGH cells (phosphor-STAT1 western blot, Taqman mRNA); assay type: cell-based
T1 construct: expressed in transfected cells; host or cells: U4A cells (JAK1-deficient derivative of the human fibroblast line 2fGH), transduced with a baculovirus mammalian expression system
T1 sequence (P23458 whole entry): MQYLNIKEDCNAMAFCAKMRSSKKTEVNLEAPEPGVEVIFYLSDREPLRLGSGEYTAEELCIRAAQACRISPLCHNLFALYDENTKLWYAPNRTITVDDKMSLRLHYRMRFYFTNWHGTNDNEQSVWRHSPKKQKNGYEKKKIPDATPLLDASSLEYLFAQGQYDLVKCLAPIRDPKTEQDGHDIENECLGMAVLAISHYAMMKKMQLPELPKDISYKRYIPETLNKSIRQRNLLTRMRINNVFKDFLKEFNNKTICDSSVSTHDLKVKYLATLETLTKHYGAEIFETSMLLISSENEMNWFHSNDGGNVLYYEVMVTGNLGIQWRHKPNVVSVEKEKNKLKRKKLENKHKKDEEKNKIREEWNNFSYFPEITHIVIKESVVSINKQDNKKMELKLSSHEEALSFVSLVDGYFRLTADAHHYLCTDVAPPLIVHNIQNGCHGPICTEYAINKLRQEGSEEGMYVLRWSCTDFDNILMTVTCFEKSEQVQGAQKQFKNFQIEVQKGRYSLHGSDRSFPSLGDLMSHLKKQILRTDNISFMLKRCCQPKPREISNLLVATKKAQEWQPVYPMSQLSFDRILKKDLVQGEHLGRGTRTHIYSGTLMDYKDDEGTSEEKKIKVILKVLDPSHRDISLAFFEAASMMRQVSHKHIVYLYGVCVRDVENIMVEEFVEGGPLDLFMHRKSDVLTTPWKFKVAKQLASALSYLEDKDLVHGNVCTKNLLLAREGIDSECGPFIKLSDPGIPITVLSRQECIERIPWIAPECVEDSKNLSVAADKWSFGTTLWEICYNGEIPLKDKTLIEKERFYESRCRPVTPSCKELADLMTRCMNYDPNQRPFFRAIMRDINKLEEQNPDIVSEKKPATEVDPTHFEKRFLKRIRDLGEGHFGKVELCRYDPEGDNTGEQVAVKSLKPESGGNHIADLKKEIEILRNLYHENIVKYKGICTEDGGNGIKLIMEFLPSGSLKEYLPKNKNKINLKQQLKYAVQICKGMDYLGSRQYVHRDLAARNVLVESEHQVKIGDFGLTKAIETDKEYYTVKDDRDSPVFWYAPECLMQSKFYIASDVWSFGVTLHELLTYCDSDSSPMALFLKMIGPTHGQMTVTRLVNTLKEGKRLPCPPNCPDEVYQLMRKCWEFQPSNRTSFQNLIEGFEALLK
Protocol: 2fGH and U4A cells were obtained from the Cleveland Clinic. 2fGH is a human fibroblast cell line and U4A cell line is a derivative 2fGH harboring a defect in JAK1 expression (Muller, et al., Nature 366, 129-135 (1993)). Green fluoroscent protein (GFP) or human JAK1 was transduced in U4A cells by baculovirus mammalian expression system. After 24 hours post transduction, the cells were treated with DMSO, Example 1 (10 μM), IFNα (100 U/ml), IFNβ (100 U/ml), or IFNγ (100 U/ml). Untransduced U4A cells and 2fGH cells were included as controls for 6 or 18 hours. The cells were harvested at indicated time points and used for detecting phosphor-STAT1 by western blot (FIG. 10, panel A) or for mRNA analysis by Taqman quantitation (FIG. 10, panel B).
The total cell lysates were analyzed on a 4-20% SDS-PAGE gradient gel and followed by immunoblotting using anti-phopho STAT1 antibody (Cell Signaling). The level of actin was monitored as a loading control. The bands were visualized by the alkaline phosphatase activity conjugated with the secondary antibody (Promega) using ProtoBlot II AP system (Promega).
Gene expression was measured using TaqMan Fast Universal PCR Master Mix (Applied Biosystems) and gene specific probes and murine primers in HT7900 FAST System (Invitrogen). As housekeeping genes, actin and GAPDH were used for normalization. Data was calculated by the ΔΔCt method and fold change determined compared to non-treated control samples.

[4] = test system: reconstructed human epidermis (RHE) keratinocytes; test: JAK/STAT induction in reconstructed human epidermis (western blot, real-time PCR); assay type: cell-based; details: 10 μM (IFN-alpha 100 U/mL), 6 and 72 hrs
Protocol: First, reconstructed human epidermis (“RHE”) consisting of cultured human keratinocyte cells were incubated in triplicate with media containing either the media alone, media+0.1% DMSO, media containing 10 μM of several putative JAK/STAT activator compounds described herein in Tables 1 and 2 (Example 1, Example 2, Example 11, and compound no. 89 (as a negative control)), or media containing 100 U/mL of a positive control Interferon-alpha (IFN-alpha) recombinant protein at 37° C. in a humidified atmosphere containing 5% CO2, for 6 and 72 hours.
At the end of the incubation period, the RHE tissues were cut into two sections. One section was ¼ of the total size and the second section was […].

FC(F)(F)c1cc(C(F)(F)F)c2ccc3nc(-c4nnco4)cn3c2n1 [Compound 1, 2-[2,4-bis(trifluoromethyl)imidazo[1,2-a]1,8-naphthyridin-8-yl]-1,3,4-oxadiazole]
EC50 [1]: 50.1 nM
antiviral activity after knockdown of IFNAR2, JAK1, STAT1, or STAT2 [2]: affected the antiviral activity
antiviral activity after knockdown of JAK1 [2]: fully abolished
antiviral activity after knockdown of other Janus kinases (JAKs) [2]: did not show any effect
CXCL9 expression in U4A cells transduced with JAK1 ([3]; 10 μM): marked up-regulation
OAS2 mRNA in parental cell line (2fGH) ([3]; 10 μM): marked increase
activation of STAT1 in U4A cells transduced with JAK1 ([3]; Example 1 10 μM, IFNα 100 U/ml): activation of STAT1 was observed
p-STAT1 in U4A cells (JAK1 deficient) transduced with GFP ([3]; Example 1 10 μM, IFNα 100 U/ml): not present
Stat1 phosphorylation (western blot) [4]: Stat1 phosphorylation
